Data taken from PMC6327998, “Synthesis and biological evaluation of thiazole derivatives as LbSOD inhibitors” (Journal of Enzyme Inhibition and Medicinal Chemistry, 2018).

Key:
[1] = target: T1, LbSOD (Leishmania braziliensis iron superoxide dismutase, FeSOD); experiment: Kd from concentration-response (FITC-labeled protein fluorescence / thermal shift); binding confirmed by ITC
T1 construct: recombinant from pETM11-LbSOD, 6xHis-tag removed by TEV protease (23 kDa)

[2] = target: T1, LbSOD (Leishmania braziliensis iron superoxide dismutase, FeSOD); experiment: Kd from concentration-response (FITC-labeled protein fluorescence / thermal shift); type: binding

With `O=[N+]([O-])c1ccc(-c2csc(N=Cc3ccc(Br)c(Br)c3)n2)cc1` [Ju-480, N-(3,4-dibromobenzylidene)-4–(4-nitrophenyl)thiazol-2-imine] the Kd [1] was 4.8 ± 12.5 µM.

In the case of `COc1cccc(C=Nc2nc(-c3ccc(Br)cc3)cs2)c1` [Ju-514, N-(3-methoxybenzylidene)-4–(4-bromophenyl)thiazol-2-imine], the Kd [2] is reported as 6.1 ± 0.8 mM.
